PubChem BioAssay (NCI)
Values joined by “and” are separate entries in the source; they are usually repeats but may differ in a detail not shown here. Equal entries are not always repeated.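 In this assay, cells in 96-well plates receive the compound at five concentrations for 48 hours. Endpoints are linearly interpolated between the surrounding concentrations. GI50 is the concentration that inhibits growth by half. Definition used: TGI = concentration required for complete inhibition of growth.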

What was measured:
Test in all cases: NCI anticancer screen, dose series, 48 h
NCI/ADR-RES ovarian = system: NCI/ADR-RES ovarian
CAKI-1 renal = system: CAKI-1 renal
OVCAR-5 ovarian = system: OVCAR-5 ovarian
NCI-H460 lung = system: NCI-H460 lung
SK-OV-3 ovarian = system: SK-OV-3 ovarian
MCF7 breast = system: MCF7 breast
HL-60(TB) leukemia = system: HL-60(TB) leukemia
OVCAR-4 ovarian = system: OVCAR-4 ovarian
RPMI-8226 leukemia = system: RPMI-8226 leukemia
UO-31 renal = system: UO-31 renal

SMILES | TGI (NCI/ADR-RES ovarian) [µM] | TGI (CAKI-1 renal) | TGI (OVCAR-5 ovarian) [µM] | TGI (NCI-H460 lung) [µM] | TGI (SK-OV-3 ovarian) [µM] | TGI (MCF7 breast) [µM] | TGI (HL-60(TB) leukemia) | TGI (OVCAR-4 ovarian) | TGI (RPMI-8226 leukemia) [µM] | TGI (UO-31 renal) | GI50 (NCI/ADR-RES ovarian) [nM] | GI50 (CAKI-1 renal) | GI50 (OVCAR-5 ovarian) [nM] | GI50 (NCI-H460 lung) | GI50 (SK-OV-3 ovarian) | GI50 (MCF7 breast) [nM] | GI50 (HL-60(TB) leukemia) | GI50 (OVCAR-4 ovarian) [nM] | GI50 (RPMI-8226 leukemia) | GI50 (UO-31 renal) [nM]
O=c1c(-c2ccccc2)c(SCCN2CCOCC2)n(-c2ccccc2)c(=S)n1-c1ccccc1 | > 100 | > 100 µM | > 100 | > 100 | > 100 | > 100 | > 100 µM | > 100 µM | > 100 |  |  |  |  |  |  |  |  |  |  | 
O=C(CSSCC(=O)OCCS(=O)(=O)Nc1ccc(Br)cc1)OCCS(=O)(=O)Nc1ccc(Br)cc1 |  | 68.4 µM | 84.7 | > 100 | 89.8 |  | 38.7 µM | 33 µM | 83.7 | > 100 µM |  |  |  |  |  |  |  |  |  | 
CCCC[C@H]1C(=O)O[C@H](C)[C@H](NC(=O)c2cccc(NC=O)c2OC)C(=O)O[C@@H](C)[C@@H]1OC(=O)CC(C)C (tested in a mixture with another compound) | 61.1 | 31 µM | 51.6 | 21.4 | 30.1 | 28.1 | 35.8 µM | 21.1 µM | 28.2 | 41.4 µM |  |  |  |  |  |  |  |  |  | 
O=S(=O)(O)c1ccc2c(N=Nc3ccccc3)c(O)ccc2c1 | > 100 | > 100 µM | > 100 | > 100 | > 100 | > 100 | > 100 µM | > 100 µM | > 100 | > 100 µM |  |  |  |  |  |  |  |  |  | 
Cc1ccc2c3c1[C@@H]1O[C@@H]1c1cccc(c1-3)[C@@H]1O[C@H]21 | 90 | 32.9 µM | 34 |  | 63.9 | 34.8 |  | 33.3 µM |  | 27.7 µM |  |  |  |  |  |  |  |  |  | 
Cc1cc2c(cc1Cl)SC(c1ccccc1O)NS2(=O)=O (stereo not drawn) | > 100 | > 100 µM | > 100 | > 100 | > 100 | > 100 | > 100 µM | > 100 µM |  | > 100 µM |  |  |  |  |  |  |  |  |  | 
CCOC(=O)/C(=C\NC(C)(C)CO)c1nc2ccccc2[nH]1 | > 100 | > 100 µM | > 100 | > 100 | > 100 | > 100 | > 100 µM | > 100 µM | > 100 | 11.7 µM |  |  |  |  |  |  |  |  |  | 
COc1ccc(N=Nc2c(N)nn(C)c2N)cc1 |  | > 100 µM | > 100 | > 100 | > 100 |  | > 100 µM | > 100 µM | > 100 | > 100 µM |  |  |  |  |  |  |  |  |  | 
CCOC(=O)C12CC(C)=C(C)CC1CCCc1ccccc12 (stereo not drawn) | > 100 | > 100 µM | 50.9 | 32.7 | > 100 | 35.2 | 29.5 µM | > 100 µM | 34.2 | > 100 µM |  |  |  |  |  |  |  |  |  | 
COc1ccc(N=Cc2ccc(N(CCC#N)S(=O)(=O)c3ccccc3)cc2C)cc1 |  | > 100 µM | > 100 | > 100 | > 100 |  | > 100 µM | > 100 µM | > 100 | > 100 µM |  |  |  |  |  |  |  |  |  | 
COc1ccc2c(c1)CCCc1c-2nc2ccccc2c1N | 33.6 | 26.8 µM | 23.9 | 16.9 | 24.2 | 24.9 | 32.4 µM | 27.3 µM | 27.3 | 18.5 µM |  |  |  |  |  |  |  |  |  | 
N#Cc1c(-c2ccc(Cl)cc2)c2c([nH]c1=O)-c1cc([N+](=O)[O-])ccc1CCC2 | 55.4 | 52.6 µM | 37.6 | 42.5 | > 100 | 83 | 65.1 µM | > 100 µM | > 100 | 32.5 µM |  |  |  |  |  |  |  |  |  | 
COC(=O)c1ccc2c(c1)sc1nc(-c3ccc(OC)cc3)cn12 | > 100 | > 100 µM | > 100 | > 100 | > 100 | > 100 | > 100 µM | > 100 µM | > 100 | > 100 µM |  |  |  |  |  |  |  |  |  | 
COc1cc(C2C(=O)C(Cl)N2Nc2nc(C)cc(=O)[nH]2)cc(OC)c1OC (stereo not drawn) |  |  | > 100 | 21.9 |  |  | 33.7 µM | 56.2 µM |  | 79.1 µM |  |  |  |  |  |  |  |  |  | 
C[C@H]1CCC/C=C/[C@@H]2C[C@H](O)C[C@H]2[C@H](O)/C=C/C(=O)O1 |  | 0.0596 µM and 0.199 µM and 0.36 µM |  |  |  |  | 1.82 µM and > 15.2 µM | 5.62 µM and > 49.1 µM |  | 0.0655 µM and 0.492 µM | 47.6 | 22.7 nM and 54.5 nM and 43.8 nM | 85.7 | 36 nM and 83.7 nM and 82.8 nM | 36.1 nM and 33.4 nM | 41.7 | 28.1 nM and 167 nM and 115 nM | 31.2 | 34.5 nM and 73.7 nM and 110 nM | 30.1
